Results: paper PMC9500038, “A fungal tolerance trait and selective inhibitors proffer HMG-CoA reductase as a herbicide mode-of-action” (Nature Communications, 2022)
pIC50: −log10 of the molar value. Entries after “also recorded” stand apart in the source; their conditions may differ.

Legend:
[1] = test system: A. thaliana; assay: Herbicidal activity assay on soil, pre- and post-emergence; type: in vivo, Arabidopsis thaliana; conditions: for herbicidal activity: pre- and post-emergence
Procedure: Approximately 30 seeds of A. thaliana (accession Col-0) or E. tef were sown in 63 × 63 × 59 mm pots of Irish peat (Bord na Móna Horticulture Ltd, Newbridge, Ireland). Seeds were incubated in the dark for 3 days at 4 °C to synchronise germination. A single pre-emergence treatment (day 0) was performed when these seeds were transferred to a growth room at 22 °C with a 16:8 h light:dark photoperiod and 60% relative humidity. Two post-emergence treatments were performed following emergence of the seedlings (day 1) at days 4 and 7. Plants were watered accordingly throughout the experiment to maintain adequate moisture and photographed on day 16. Treatments were conducted with rosuvastatin, simvastatin, fluvastatin, atorvastatin (AK Scientific), pravastatin (BOC Sciences), lovastatin (Sapphire Bioscience), mevastatin, pitavastatin (Focus Bioscience), glyphosate, RoundUp® and atorvastatin analogues (1–9). To treat, 0.5 mL of each compound in a final concentration of 2% dimethyl sulfoxide (DMSO) and 0.02% Brushwet (SST Dandenong, Australia) was pipetted onto seedlings. Full experimental details and characterisation of atorvastatin analogue 1–9 synthesis can be found in Supplementary Method 1 and Supplementary Figs. 7–62. Growth inhibition was quantified by detecting green pixels for healthy seedlings using ImageJ (National Institutes of Health, 1.53 v) and the ‘Threshold Colour’ plug-in with the following settings: hue 50–110, saturation 125–255, brightness 30–255[67]. Images were converted into 8-bit format, and pixels measured over the same area. Data were normalised to a negative control to provide percentage inhibition.

[2] = target: T1, AtHMG1 (Arabidopsis thaliana, UniProt P14891); assay: biochemical; type: biochemical; conditions: for pIC50: wild-type AtHMG1, in vitro; for selectivity for AtHMG1 in vitro (dose-response): inhibition profiles AtHMG1 versus HsHMGCR
T1 construct: AtHMG1 (Uniprot P14891, At1g76490, residues 121–592); His6 (N); TEV cleavage site (N); made in house; host or cells: E. coli T7 SHuffle Express
T1 sequence (P14891 121-592): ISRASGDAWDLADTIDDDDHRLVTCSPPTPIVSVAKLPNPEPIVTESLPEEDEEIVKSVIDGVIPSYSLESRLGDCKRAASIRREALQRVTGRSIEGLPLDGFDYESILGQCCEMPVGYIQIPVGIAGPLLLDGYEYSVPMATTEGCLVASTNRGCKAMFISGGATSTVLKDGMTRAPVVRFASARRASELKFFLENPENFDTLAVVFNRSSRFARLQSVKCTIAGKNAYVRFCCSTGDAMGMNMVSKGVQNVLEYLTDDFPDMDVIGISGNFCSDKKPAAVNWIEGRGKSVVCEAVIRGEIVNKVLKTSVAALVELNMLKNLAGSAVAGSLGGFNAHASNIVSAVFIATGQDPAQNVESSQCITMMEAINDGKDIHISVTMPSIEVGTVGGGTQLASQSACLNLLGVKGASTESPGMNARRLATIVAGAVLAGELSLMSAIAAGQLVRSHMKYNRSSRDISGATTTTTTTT
Procedure: An E. coli codon-optimised DNA sequence encoding the conserved […] region of AtHMG1 (Uniprot P14891, At1g76490, residues 121–592) was cloned into pQE30 (Qiagen) following an N-terminal His6-tag and tobacco etch virus cleavage site. The protein was expressed in the T7 SHuffle Express strain of E. coli (New England Biolabs) transformed with pREP4 (Qiagen) with the proteins expressed and purified as previously described. Briefly, cultures were grown in lysogeny broth containing 100 μg/mL ampicillin and 35 μg/mL kanamycin at 30 °C to an OD600 of 0.8–1.0. Cells were cooled to 16 °C before the expression was induced with 0.1 mM isopropyl β-D-1-thiogalactopyranoside. Following overnight culture, cells were harvested by centrifugation and lysed by ultrasonication in 100 mM HEPES (pH 7.5), 150 mM sodium chloride, 5 mM dithiothreitol, 0.1% Triton X-100. Lysed cells were then centrifuged (15,000×g) and the supernatant was incubated in 30 mL batches with Ni-NTA resin overnight at 4 °C. The resin was then washed with 50 mL of 100 mM HEPES (pH 7.5), 150 mM sodium chloride, 5 mM dithiothreitol followed by 50 mL of 100 mM HEPES (pH 7.5), 150 mM sodium chloride, 5 mM dithiothreitol, 20 mM imidazole. The protein was then eluted with 50 mL of 100 mM HEPES (pH 7.5), 150 mM sodium chloride, 5 mM dithiothreitol, 300 mM imidazole. Eluted protein was concentrated with a 30 kDa centrifugal filter unit (Millipore) and purified by size-exclusion chromatography (HiLoad 16/600 Superdex 200) in 100 mM HEPES (pH 7.5), 150 mM sodium chloride, 5 mM dithiothreitol. The protein was assessed for purity by SDS-PAGE, and protein concentration was determined by spectrophotometry.
(§1) AtHMG1 described above and human HMGR (HsHMGCR, Uniprot P04035, residues 441–888, cloned as above) were purified as above, and activity was determined by spectrophotometric measurement of the decrease in absorbance at 340 nm that occurs with NADPH oxidation in the presence of substrate HMG-CoA (Sigma-Aldrich). Reactions were performed with an assay buffer consisting of 150 mM sodium chloride, 5 mM dithiothreitol, 50 mM HEPES pH 7.4 and 2% DMSO. For kinetics determinations, a final concentration of 150 nM enzyme was incubated at 37 °C in 300 μM NADPH and different concentrations of HMG-CoA. Non-linear regression analysis was performed with GraphPad Prism 9 by plotting the initial reaction rates, v0, interpolated from a standard curve against the substrate concentration. The Michaelis–Menten constant, Km, was determined by fitting the data with a Michaelis–Menten equation and values for kcat were calculated by dividing Vmax by the molar enzyme concentration. To calculate relative specific activity, 500 nM of test compounds were pre-incubated at 37 °C with enzyme and 300 μM NADPH for 15 min before adding HMG-CoA to 200 μM. Resultant values were background subtracted and normalised to the average of the no-inhibitor control. For IC50 determinations, the same protocol was used, but varying inhibitor concentrations. Rosuvastatin data were plotted with a four-parameter (WT), and normalised response (L558T) non-linear regression model and atorvastatin and analogues were plotted with a normalised response with variable slope non-linear regression model.

[3] = target: T2, AtHMG1-L558T (Arabidopsis thaliana, UniProt P14891, L558T); assay: biochemical; type: biochemical; conditions: for AtHMG1-L558T activity in the presence of statin: 500 nM, in comparison to wild-type
T2 construct: AtHMG1 (Uniprot P14891, At1g76490, residues 121–592); His6 (N); TEV cleavage site (N); made in house; host or cells: E. coli T7 SHuffle Express
T2 sequence (P14891 121-592 L558T): as the sequence (P14891 121-592) above, with L438T counted along it
Procedure: as §1

[4] = test system: wild-type (WT) A. thaliana; assay: In planta statin resistance assay, non-transformed WT; type: in vivo; conditions: Arabidopsis thaliana; growth medium, green pixels; read-out: IC50 growth inhibition, non-transformed WT
Procedure: (§2) DNA encoding the full-length AtHMG1 protein (Uniprot P14891, residues 1–592) and the corresponding L558T mutant were cloned into a derivative of the pMDC43 binary vector[75] to yield 35 S::AtHMG1 and 35 S::AtHMG1-L558T transgenes, respectively. These constructs were then introduced into Agrobacterium tumefaciens strain LBA4404 and separately used to transform A. thaliana by the floral dip method[76],[77]. Seeds (T0/1) of transformed plants were collected and surface sterilised using 600 µL 70% ethanol, 750 µL 100% ethanol and soaked in 800 µL 50% bleach for 8 min, before washing with 800 µL sterile water and resuspension with 0.1% agar. Selection was performed on 30 µg/mL hygromycin growth medium (1% agar, 1% glucose, 0.45% Murashige & Skoog salts with vitamins, 0.3% 2-(N-morpholino)-ethanesulfonic acid (MES) (v/v), pH 5.7) in a growth room at 22 °C with 16:8 h light:dark photoperiod and 60% relative humidity. Surviving plants were transferred to 63 ×63 × 59 mm pots of Irish peat and grown to maturity in the same growth conditions. Seeds from plants with an adequate seed yield were then sterilised and selected again as described above with 30 µg/mL hygromycin growth medium. […] Plates were sealed with porous tape and grown for a minimum of 10 days with the growth conditions described above. Plates were then imaged, and growth quantified using ImageJ as described above. […]

[5] = test system: 35 S::AtHMG1 A. thaliana lines; assay: In planta statin resistance assay, 35 S::AtHMG1 lines; type: in vivo; conditions: Arabidopsis thaliana; 19 T2 lines combined; read-out: IC50 growth inhibition, 35 S::AtHMG1 lines
Procedure: as §2

[6] = test system: 35 S::AtHMG1-L558T A. thaliana lines; type: in vivo, Arabidopsis thaliana
Procedure: DNA encoding the full-length AtHMG1 protein (Uniprot P14891, residues 1–592) and the corresponding L558T mutant were cloned into a derivative of the pMDC43 binary vector[75] to yield 35 S::AtHMG1 and 35 S::AtHMG1-L558T transgenes, respectively. These constructs were then introduced into Agrobacterium tumefaciens strain LBA4404 and separately used to transform A. thaliana by the floral dip method[76],[77]. Seeds (T0/1) of transformed plants were collected and surface sterilised using 600 µL 70% ethanol, 750 µL 100% ethanol and soaked in 800 µL 50% bleach for 8 min, before washing with 800 µL sterile water and resuspension with 0.1% agar. Selection was performed on 30 µg/mL hygromycin growth medium (1% agar, 1% glucose, 0.45% Murashige & Skoog salts with vitamins, 0.3% 2-(N-morpholino)-ethanesulfonic acid (MES) (v/v), pH 5.7) in a growth room at 22 °C with 16:8 h light:dark photoperiod and 60% relative humidity. Surviving plants were transferred to 63 ×63 × 59 mm pots of Irish peat and grown to maturity in the same growth conditions. Seeds from plants with an adequate seed yield were then sterilised and selected again as described above with 30 µg/mL hygromycin growth medium. […] Plates were sealed with porous tape and grown for a minimum of 10 days with the growth conditions described above. Plates were then imaged, and growth quantified using ImageJ as described above. Total green pixels were normalised against negative controls for the respective lines (2% DMSO and water) to provide percentage inhibition. […] Growth inhibition at varying concentrations of hygromycin and rosuvastatin were plotted with a four-parameter non-linear regression model using GraphPad Prism 9.

[7] = target: T3, HsHMGCR (Homo sapiens, UniProt P04035); assay: In vitro HMGR assay (NADPH depletion), HsHMGCR; type: biochemical
T3 construct: HsHMGCR, Uniprot P04035, residues 441–888; His6 (N); TEV cleavage site (N); made in house; host or cells: E. coli T7 SHuffle Express (by 'cloned as above ... purified as above')
T3 sequence (P04035 441-888): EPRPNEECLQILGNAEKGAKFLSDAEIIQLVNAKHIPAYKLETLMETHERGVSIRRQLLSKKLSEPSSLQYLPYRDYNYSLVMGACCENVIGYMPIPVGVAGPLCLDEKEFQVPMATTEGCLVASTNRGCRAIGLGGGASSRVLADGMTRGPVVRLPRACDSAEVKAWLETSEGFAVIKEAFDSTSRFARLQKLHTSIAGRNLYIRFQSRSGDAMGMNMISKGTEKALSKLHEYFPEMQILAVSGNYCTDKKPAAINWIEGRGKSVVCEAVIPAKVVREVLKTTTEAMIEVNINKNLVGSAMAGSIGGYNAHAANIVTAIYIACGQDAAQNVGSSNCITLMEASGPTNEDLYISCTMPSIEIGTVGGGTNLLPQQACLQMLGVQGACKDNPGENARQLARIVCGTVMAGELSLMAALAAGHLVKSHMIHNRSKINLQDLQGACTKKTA
Procedure: as §1, with “Rosuvastatin data were plotted with a four-parameter (WT), and normalised response (L558T) non-linear regression model and atorvastatin and analogues were plotted with a normalised response with variable slope non-linear regression model.” left out

Structure (SMILES): CC(C)c1nc(N(C)S(C)(=O)=O)nc(-c2ccc(F)cc2)c1/C=C/[C@@H](O)C[C@@H](O)CC(=O)O [rosuvastatin]
- herbicidal activity [1]: most herbicidal statin
- concentration lethal to A. thaliana ([1]; rosuvastatin without formulation beyond a wetting agent, Roundup formulated, same conditions): ~ 15 μM
- pIC50 [2]: 7.28
- pIC50 [3]: < 6.00
- AtHMG1-L558T activity in the presence of statin [3]: retained activity
- resistance of AtHMG1-L558T versus WT in vitro ([3]; in vitro): > 20 fold
- pIC50 [4]: 5.52
- pIC50 [5]: 4.34
- 35 S::AtHMG1-L558T lines less sensitive to treatment than 35 S::AtHMG1 lines ([6]; 80 µM versus 5 µM, compared to untreated WT): up to 16 fold
- resistance of 35 S::AtHMG1-L558T lines versus 35 S::AtHMG1 lines ([6]; in planta): over sixfold more resistant
- resistance of 35 S::AtHMG1-L558T lines versus non-transformed WT ([6]; in planta): more than 100 fold

Structure (SMILES): O=C(O)C[C@H](O)C[C@H](O)CCn1c(-c2ccc(F)cc2)c(-c2ccccc2)c(C(=O)Nc2ccccc2)c1C1CCCC1 [compound 8]
- selectivity for AtHMG1 in vitro (dose-response) [2]: not selective

Structure (SMILES): CCC(C)(C)C(=O)O[C@H]1C[C@@H](C)C=C2C=C[C@H](C)[C@H](CC[C@@H]3C[C@@H](O)CC(=O)O3)[C@H]21 [simvastatin]
- AtHMG1-L558T activity in the presence of statin [3]: retained activity

Structure (SMILES): O=C(O)C[C@H](O)C[C@H](O)CCn1c(-c2ccc(F)cc2)c(-c2ccccc2)c(C(=O)Nc2ccccc2)c1C1CCC1 [compound 7]
- herbicidal activity [1]: retained herbicidal activity
- specificity for AtHMG1 over HsHMGCR ([2]; in vitro, from IC50 dose-response curves): > 20 fold
- selectivity in vitro for AtHMG1 over HsHMGCR ([2]; initial screen at 500 nM): selective; also recorded: preference for AtHMG1 over HsHMGCR
- pIC50 [2]: 7.49
- pIC50 [7]: 6.05

Structure (SMILES): O=C(O)C[C@H](O)C[C@H](O)/C=C/c1c(C2CC2)nc2ccccc2c1-c1ccc(F)cc1 [pitavastatin]
- AtHMG1-L558T activity in the presence of statin [3]: retained activity

Structure (SMILES): CC[C@H](C)C(=O)O[C@H]1C[C@H](O)C=C2C=C[C@H](C)[C@H](CC[C@@H](O)C[C@@H](O)CC(=O)O)[C@H]21 [pravastatin]
- AtHMG1-L558T activity in the presence of statin [3]: retained activity

Structure (SMILES): CC(C)n1c(/C=C/C(O)CC(O)CC(=O)O)c(-c2ccc(F)cc2)c2ccccc21 (stereo not shown) [fluvastatin]
- AtHMG1-L558T activity in the presence of statin [3]: retained activity

Structure (SMILES): CC[C@H](C)C(=O)O[C@H]1CCC=C2C=C[C@H](C)[C@H](CC[C@@H]3C[C@@H](O)CC(=O)O3)[C@H]21 [mevastatin]
- AtHMG1-L558T activity in the presence of statin [3]: retained activity

Structure (SMILES): CC(C)c1c(C(=O)Nc2ccccc2)c(-c2ccccc2)c(-c2ccc(F)cc2)n1CC[C@@H](O)C[C@@H](O)CC(=O)O [atorvastatin]
- selectivity for AtHMG1 in vitro (dose-response) [2]: not selective
- AtHMG1-L558T activity in the presence of statin [3]: retained activity

Structure (SMILES): CC[C@H](C)C(=O)O[C@H]1C[C@@H](C)C=C2C=C[C@H](C)[C@H](CC[C@@H]3C[C@@H](O)CC(=O)O3)[C@H]21 [lovastatin]
- AtHMG1-L558T activity in the presence of statin [3]: retained activity
